Results published in PMC5282547, “The Proline/Arginine Dipeptide from Hexanucleotide Repeat Expanded C9ORF72 Inhibits the Proteasome” (eNeuro, 2017).
Where no end group is shown, it is not given here.

How the values were obtained:
motor neurons [1] = assay: Motor neuron survival in mixed spinal cord cultures (SMI32 counts), LD50 determination; format: cell-based, rat
Protocol: Mixed spinal cord neuron cultures were prepared as described previously ([Mojsilovic-Petrovic et al., 2006]). Briefly, an astrocyte feeder layer was prepared from the cortex of newborn Sprague Dawley rat pups [postnatal day 2 (P2)] and grown to ∼80% confluency. Subsequently, dissociated embryonic day 15 (E15) spinal cord neurons were added. One to two days later, AraC ([…]) (catalog #C6645; Sigma) was added for 24 h to arrest astrocyte proliferation. Cultures were maintained in glia-conditioned medium supplemented with the following trophic factors (1.0 ng/ml each): human neurotrophin-3, human neurotrophin-4, human brain-derived neurotrophic factor, and rat ciliary neurotrophic factor (Alomone Labs). Half of the culture medium was replaced on a biweekly basis.
Days in vitro (DIV)14 mixed spinal cord cultures were exposed to PR20 or GR20 by addition of synthetic peptide to the media one time. Cultures were fixed 5 d later with freshly prepared 4% paraformaldehyde for 20 min, washed extensively with 0.1 M PBS, pH 7.4, and immunostained with SMI32 to identify motor neurons. Immunopositive cells >25 µm in diameter are motor neurons based on their costaining for peripherin, ChAT, and islet 1/2 ([Mojsilovic-Petrovic et al., 2006]). Motor neurons were counted in three nonoverlapping, randomly selected fields on a coverslip using a 5[times objective, and the values from a single coverslip averaged. The results of 3-5 independently treated coverslips were the basis and means and variance used in statistical analysis. Each experiment was repeated with independently generated culture 4+ times ([Mojsilovic-Petrovic et al., 2006]).
Motor neuron survival 5 d later was determined. Once the approximate LD50 was determined, we repeated the analysis with more closely spaced concentrations for a more precise definition of the LD50. Determination of the LD50 of MG132 was accomplished in an identical manner.

[2] = tested on: phosphorylated S6K and 4EBP1; assay: Immunoblot for mTOR pathway activation; format: cell-based, rat; settings: 2 µM, 48 h, immunoblot normalized to actin
Protocol: (§1) All plates were incubated with PR20 for 48 h.
Once scanning of the nitrocellulose membranes probed for 4EBP1/P-4EBP1 and S6K/P-S6K had been completed, Restore Western Blot Stripping Buffer (Thermo Fisher Scientific) was used to strip the blot of antibodies. The membranes were washed twice in PBS-T for 10 min each and then placed in the stripping buffer for 22 min. The membranes were then washed twice once again in PBS-T for 10 min. They were then placed in blocking solution (5% w/v milk in PBS-T) for 45 min.

[3] = tested on: KDEL-tagged chaperones BiP and PDI; assay: Immunoblot for ER stress; format: cell-based, rat; settings: 2 µM, 48 h, immunoblot normalized to actin
Protocol: as §1

Dendra2-LC3 = assay: Autophagic flux assay, optical pulse labeling of Dendra2-LC3; format: cell-based, rat; settings: 2 µM peptide, primary spinal neurons, single-cell optical pulse labeling
Protocol: Primary spinal neurons were dissected from E15 rat pups and cultured at a density of 2.5 × 10^5 cells/ml on a laminin/poly-lysine-coated 96-well plate in motor neuron media. Four days after plating, neurons were transfected with Lipofectamine 2000 (Invitrogen). DNA-Lipofectamine mixtures were incubated with neurons for 20 min followed by rinsing. Neurons were then placed in 100 µL of conditioned media that was collected immediately prior to transfection and half fresh motor neuron media containing 4 µM PR20, resulting in a final concentration of 2 µM PR20.
Optical pulse labeling experiments were performed using an automated microscopy platform previously described by [Arrasate et al. (2004)] and [Barmada et al. (2014)]. A Nikon Eclipse Ti inverted microscope equipped with a PerfectFocus system, 20× objective lens and an Andor iXon3 897 EMCCD camera were used to acquire images. Samples were illuminated with a Sutter Instruments Lamba XL lamp. The microscope and related components were encased in custom-built plexiglass enclosure set to maintain the temperature at 37°C and CO2 at 5%. Semrock GFP and TRITC filters were used for excitation and detection. A Semrock 405-nm long-pass filter was used for photoactivation. Image acquisition and stage movements were accomplished in an automated fashion using µManager and original code written in BeanShell. For all experiments, photoconversion occurred 24 h following transfection. GFP and TRITC images were acquired immediately following activation and subsequently every 2 h for 12 h. Images were acquired in a similar 12-h window starting 48 h after PR20 treatment. Using in-house image analysis scripts, neuronal cell bodies were identified based on their fluorescent intensity and morphology, and a ROI was drawn around the perimeter of each cell at each time. Single-cell TRITC intensity values were recorded and used to fit a first order exponential decay curve for individual neurons and calculate a Dendra2-light chain 3 (LC3) half-life for each cell. […]

motor neurons [4] = assay: Motor neuron survival with IU1 co-treatment; format: cell-based, rat; settings: PR20 treatment without IU1, 5 d
Protocol: Days in vitro (DIV)14 mixed spinal cord cultures were exposed to PR20 or GR20 by addition of synthetic peptide to the media one time. Cultures were fixed 5 d later with freshly prepared 4% paraformaldehyde for 20 min, washed extensively with 0.1 M PBS, pH 7.4, and immunostained with SMI32 to identify motor neurons. […] Motor neurons were counted in three nonoverlapping, randomly selected fields on a coverslip using a 5[times objective, and the values from a single coverslip averaged.
For experiments involving IU1, DIV14 cultures were treated with PR20 or its vehicle, and every other day, IU1 (or vehicle) was added to the culture media to achieve a final concentration of 5 µM. At DIV19, cultures were fixed and motor neuron number determined as described above.

[5] = tested on: mixed spinal cord cultures; assay: Cellular accumulation and disposal of HA-tagged DPR (immunoblot of cell lysates, continuous exposure or 2-h pulse-chase)
Protocol: Confluent dishes of astrocyte neuron cocultures at 37°C had volumes equalized to 2 ml of cell culture media each. Approximately 300 μl of media from each dish was removed and pooled with other dishes, PR20 stock solution was added, and the mixture was then added back to the corresponding culture dish, so that each dish contained a final concentration of 2 μM. All plates were incubated with PR20 for 48 h.
Lysis buffer was prepared containing 1% (v/v) protease inhibitor cocktail, 1% (v/v) PMSF, and 1% (v/v) leucine in 1% RIPA buffer solution on ice. Culture dishes were washed once with ice-cold PBS to remove any remaining media. A total of 125 μl (35-mm dish), 150 μl (6-well plate), or 250 μL (60-mm dish) of lysis buffer was added to each plate, and cells were scraped into a cold 1.5-ml tube. Samples were sonicated for 30 s at 20% intensity, placed on a rotator at 4°C for 20 min, and then centrifuged for 15 min at 13,200 rpm. Supernatant was then removed from each tube for further analysis.
We investigated the fate of PR20 in mixed spinal cord cultures through immunoblotting and immunocytochemistry. […] To gain further insight into the kinetics of the observed decrease in PR20 levels in cell lysates over time, we pulsed cells with 2 µM PR20 for 2 h, washed, replaced with fresh media (lacking PR20), and made cell lysates at regular intervals thereafter. […] To more easily follow GR20 by immunoblotting, we applied 10 µM GR20 to cultures and performed the same kinetic analysis as described in Figure 1D.

[6] = 2 µM in media, continuous exposure

PRPRPRPRPRPRPRPRPRPRPRPRPRPRPRPRPRPRPRPRYPYDVPDYA [PR20]
motor neuron death at the 48-h time point (motor neurons [1]; 2 µM PR20, 48 h): No significant motor neuron death | LD50, death of motor neurons (motor neurons [1]; single application to DIV14 mixed spinal cord cultures on astrocyte feeder layer, motor neuron survival 5 d later): 2.0 µM | activation level of the mTOR pathway versus vehicle [2]: no statistically significant differences | ER stress (BiP and PDI abundance) versus vehicle [3]: no statistically significant differences | extension of Dendra2-LC3 half-life compared with control (Dendra2-LC3): ~5.6 h | loss of motor neurons (motor neurons [4]): approximately 50% | time of maximum immunoblot signal in cell lysates [5, 6]: 1.0 to 2.0 h | time point at which immunoblot signal is undetectable [5, 6]: 48 h | time at which peptide is first detectable in cell lysates ([5]; 2 µM in media, continuous exposure, anti-HA immunoblot): approximately 0.5 h | decrement in peptide abundance with versus without bafilomycin A1 in the chase media ([5]; 2-h pulse with 2 µM, chase with Baf A1 400 nM): the same | loss of peptide with MG132 versus vehicle in the chase media ([5]; 2-h pulse with 2 µM, chase with MG132 5 µM): indistinguishable | lysate fractions with detectable Western blot signal at the 2-h time point ([5]; 2-h pulse-chase, 2 µM): soluble and insoluble fractions | time point by which signal diminishes to a barely detectable level ([5]; 2-h pulse-chase, 2 µM): 6 h | half-life of dipeptide in cells ([5]; immunoblot of mixed spinal cord culture lysates): on the orders of hours
